{
  "source": "patent EP4631937A1",
  "about": "“CRYSTALLINE FORM OR AMORPHOUS FORM OF OXOISOINDOLE-5-FORMAMIDE COMPOUND OR SALT AND SOLVATE THEREOF” (Hangzhou Glubio Pharmaceutical Co., Ltd., priority 2022, dated 2024)",
  "key": {"[1]": {"test": "Stability test of crystalline forms (open container at 25°C/92% RH and 40°C/75% RH, sealed container at 60°C, 13 days; XRPD, HPLC, colour)", "assay_type": "physicochemical", "settings": "initial, before storage; listed as Crystalline form G", "protocol": "Placed in a open container at 25°C/92% RH and 40°C/75% RH for 13 days, respectively, or in a sealed container at 60°C for 13 days. […]\n(§1) Placed in a open container at 25 °C/92% RH and 40 °C/75% RH for 13 days, respectively, or in a sealed container at 60 °C for 13 days. […]\nas §1"}, "[2]": {"test": "Hygroscopicity test by DVS, with XRPD after DVS", "assay_type": "physicochemical", "settings": "25 °C, listed as Crystalline form G", "protocol": "• DVS Intrinsic Dynamic Vapor Sorption Instrument • Gas flow rate 200 sccm, furnace temperature 25 °C.\n(§2) The hygroscopicity and dehydration behavior of crystalline form B was investigated by DVS. Humidity program: 25 °C, 40-0-95-0-40% RH, dm/dt 0.002, shortest equilibrium time was 60 min, and longest equilibrium time was 360 min. XRPD was also performed on the samples after DVS test to determine whether the crystal transformation occurred.\nas §2, with “E” for “B”\nas §2, with “G” for “B”"}, "[3]": {"test": "Simulated tableting experiment (XRPD after pressing)", "assay_type": "physicochemical", "protocol": "About 10 mg of crystalline form G was weighed and pressed at 2 MPa, 5 MPa or 10 MPa for 5 min. The crystal transformation and the change of crystallinity were investigated by XRPD characterization."}, "[4]": {"test": "Pharmacokinetic evaluation in mice by gavage", "assay_type": "in vivo", "design": "AUClast /D: unit not given here", "settings": "CD1 male mice, oral, 30 mg/kg, 25 mM citrate buffer (pH 3) containing 5% Tween 80", "protocol": "CD1 male mice were selected and the test compound was administered orally. The drug concentration in plasma at different time points was quantitatively determined by LC/MS/MS to evaluate the pharmacokinetic characteristics of the test drug in mice.\nExperimental materials: CD1 Mouse (male, 20-30 g, 6-8 weeks old, Zhejiang Weitong Lihua).\nBlood was collected from the dorsal plantar vein at 0.25 h, 0.5 h, 1 h, 2 h, 4 h, 6 h, 8 h and 24 h after administration, placed in an anticoagulant tube containing EDTA-K2 and mixed, and centrifuged at 4°C and 4000 g for 5 minutes. The drug concentration in blood was determined by LC-MS/MS, and the relevant pharmacokinetic parameters were calculated by the non-compartmental linear/log trapezoidal method using Phoenix WinNonlin 6.3 pharmacokinetic software."}, "[5]": {"test": "Stability test of crystalline forms (open container at 25°C/92% RH and 40°C/75% RH, sealed container at 60°C, 13 days; XRPD, HPLC, colour)", "assay_type": "physicochemical", "settings": "Solid, 1 week, listed as Crystalline form G; for Chemical purity / Chiral purity: HPLC/SFC"}},
  "data": [
    {"smiles": "O=C1CC[C@H](N2Cc3cc(C(=O)N[C@H](c4ccc(Cl)cn4)C4CCC4)ccc3C2=O)C(=O)N1", "note": "[crystalline form G, N-((S)-(5-chloropyridin-2-yl)(cyclobutyl)methyl)-2-((S)-2,6-dioxopiperidin-3-yl)-1-oxoisoindoline-5-carboxamide]", "values": [
      {"measurement": "Initial purity (HPLC/SFC) Chemical purity", "setting": "[1]", "value": 99.7, "unit": "%"},
      {"measurement": "Initial purity (HPLC/SFC) Chiral purity", "setting": "[1]", "value": 97.6, "unit": "%"},
      {"measurement": "1st adsorption weight change percentage", "setting": "[2]; relative humidity 0%", "value": 0.0, "unit": "%"},
      {"measurement": "1st desorption weight change percentage", "setting": "[2]; relative humidity 0%", "value": 0.0, "unit": "%"},
      {"measurement": "1st adsorption weight change percentage", "setting": "[2]; relative humidity 10%", "value": 0.0, "unit": "%"},
      {"measurement": "1st desorption weight change percentage", "setting": "[2]; relative humidity 10%", "value": 0.1, "unit": "%"},
      {"measurement": "2nd adsorption weight change percentage", "setting": "[2]; relative humidity 10%", "value": 0.0, "unit": "%"},
      {"measurement": "2nd desorption weight change percentage", "setting": "[2]; relative humidity 10%", "value": 0.1, "unit": "%"},
      {"measurement": "1st adsorption weight change percentage", "setting": "[2]; relative humidity 20%", "value": 0.0, "unit": "%"},
      {"measurement": "1st desorption weight change percentage", "setting": "[2]; relative humidity 20%", "value": 0.1, "unit": "%"},
      {"measurement": "2nd adsorption weight change percentage", "setting": "[2]; relative humidity 20%", "value": 0.0, "unit": "%"},
      {"measurement": "2nd desorption weight change percentage", "setting": "[2]; relative humidity 20%", "value": 0.1, "unit": "%"},
      {"measurement": "1st adsorption weight change percentage", "setting": "[2]; relative humidity 30%", "value": 0.1, "unit": "%"},
      {"measurement": "1st desorption weight change percentage", "setting": "[2]; relative humidity 30%", "value": 0.2, "unit": "%"},
      {"measurement": "2nd adsorption weight change percentage", "setting": "[2]; relative humidity 30%", "value": 0.1, "unit": "%"},
      {"measurement": "2nd desorption weight change percentage", "setting": "[2]; relative humidity 30%", "value": 0.2, "unit": "%"},
      {"measurement": "1st adsorption weight change percentage", "setting": "[2]; relative humidity 40%", "value": 0.1, "unit": "%"},
      {"measurement": "1st desorption weight change percentage", "setting": "[2]; relative humidity 40%", "value": 0.3, "unit": "%"},
      {"measurement": "2nd adsorption weight change percentage", "setting": "[2]; relative humidity 40%", "value": 0.1, "unit": "%"},
      {"measurement": "2nd desorption weight change percentage", "setting": "[2]; relative humidity 40%", "value": 0.3, "unit": "%"},
      {"measurement": "1st adsorption weight change percentage", "setting": "[2]; relative humidity 50%", "value": 0.2, "unit": "%"},
      {"measurement": "2nd desorption weight change percentage", "setting": "[2]; relative humidity 50%", "value": 0.3, "unit": "%"},
      {"measurement": "1st adsorption weight change percentage", "setting": "[2]; relative humidity 60%", "value": 0.2, "unit": "%"},
      {"measurement": "2nd desorption weight change percentage", "setting": "[2]; relative humidity 60%", "value": 0.4, "unit": "%"},
      {"measurement": "1st adsorption weight change percentage", "setting": "[2]; relative humidity 70%", "value": 0.3, "unit": "%"},
      {"measurement": "2nd desorption weight change percentage", "setting": "[2]; relative humidity 70%", "value": 0.4, "unit": "%"},
      {"measurement": "1st adsorption weight change percentage", "setting": "[2]; relative humidity 80%", "value": 0.3, "unit": "%"},
      {"measurement": "2nd desorption weight change percentage", "setting": "[2]; relative humidity 80%", "value": 0.5, "unit": "%"},
      {"measurement": "1st adsorption weight change percentage", "setting": "[2]; relative humidity 90%", "value": 0.5, "unit": "%"},
      {"measurement": "2nd desorption weight change percentage", "setting": "[2]; relative humidity 90%", "value": 0.5, "unit": "%"},
      {"measurement": "1st adsorption weight change percentage", "setting": "[2]; relative humidity 95%", "value": 0.7, "unit": "%"},
      {"measurement": "2nd desorption weight change percentage", "setting": "[2]; relative humidity 95%", "value": 0.7, "unit": "%"},
      {"measurement": "XRPD after DVS test", "setting": "[2]; after 40-0-95-0-40% RH", "value": "The crystal form did not change, see Figure 20b"},
      {"measurement": "moisture adsorbed (DVS)", "setting": "[2]; under 40%RH-95%RH", "value": "0.6% of moisture was adsorbed under 40%RH-95%RH, see Figure 20a"},
      {"measurement": "Notes (change of crystallinity)", "setting": "[3]; pressed at 2 MPa for 5 min", "value": "No significant change in crystallinity"},
      {"measurement": "XRPD", "setting": "[3]; pressed at 2 MPa for 5 min", "value": "Crystalline form G, see Figure 21a"},
      {"measurement": "Notes (change of crystallinity)", "setting": "[3]; pressed at 5 MPa for 5 min", "value": "No significant change in crystallinity"},
      {"measurement": "XRPD", "setting": "[3]; pressed at 5 MPa for 5 min", "value": "Crystalline form G, see Figure 21a"},
      {"measurement": "Notes (change of crystallinity)", "setting": "[3]; pressed at 10 MPa for 5 min", "value": "No significant change in crystallinity"},
      {"measurement": "XRPD", "setting": "[3]; pressed at 10 MPa for 5 min", "value": "Crystalline form G, see Figure 21a"},
      {"measurement": "change in crystallinity", "setting": "[3]; tableted at 2 MPa, 5 MPa and 10 MPa pressures", "value": "no significant change in crystallinity was observed"},
      {"measurement": "AUClast /D", "setting": "[4]; dose-normalised", "value": "306 ± 35"},
      {"measurement": "AUC(0-inf)", "setting": "[4]; mouse, plasma", "value": "10700 ± 2100", "unit": "ng·h/mL"},
      {"measurement": "AUC(0-t)", "setting": "[4]; mouse, plasma", "value": "9170 ± 1050", "unit": "ng·h/mL"},
      {"measurement": "Cmax", "setting": "[4]; mouse, plasma", "value": "1370 ± 365", "unit": "ng/mL"},
      {"measurement": "Tmax", "setting": "[4]; mouse, plasma", "value": 0.42, "unit": "h"},
      {"measurement": "half-life", "setting": "[4]; mouse, plasma", "value": 8.7, "unit": "h"},
      {"measurement": "Chemical purity", "setting": "[5]; 25 °C/92% RH, open container", "value": 99.4, "unit": "%"},
      {"measurement": "Chiral purity", "setting": "[5]; 25 °C/92% RH, open container", "value": 97.8, "unit": "%"},
      {"measurement": "Solid (XRPD)", "setting": "[5]; 25 °C/92% RH, open container", "value": "The crystal form did not change, see Figure 17c"},
      {"measurement": "Chemical purity", "setting": "[5]; 40 °C/75% RH, open container", "value": 99.5, "unit": "%"},
      {"measurement": "Chiral purity", "setting": "[5]; 40 °C/75% RH, open container", "value": 97.8, "unit": "%"},
      {"measurement": "Solid (XRPD)", "setting": "[5]; 40 °C/75% RH, open container", "value": "The crystal form did not change, see Figure 17c"},
      {"measurement": "Chemical purity", "setting": "[5]; 60 °C, sealed container", "value": 99.5, "unit": "%"},
      {"measurement": "Chiral purity", "setting": "[5]; 60 °C, sealed container", "value": 97.7, "unit": "%"},
      {"measurement": "Solid (XRPD)", "setting": "[5]; 60 °C, sealed container", "value": "The crystal form did not change, see Figure 17c"}
    ]}
  ]
}
